According to US5981698A, “Antimicrobial polypeptides” (CyberChemics, Inc., priority 1997, dated 1999):
Peptide text beside a SMILES is read from it.

Assays:
[1] = Solubility (optical density readings); assay type: physicochemical
Source text: (§1) Table III lists the approximate pharmacokinetics of synthetic peptides described in the present invention which solubilize readily, persist in conformationally active secondary structures in vivo, and induce lysis of representative bacteria, yeast and fungi. These determinations derive from optical density readings (O.D.) and rely on spectrophotometric absorbance from known initial concentrations as reference standards. The optimal therapeutic index for dosage and effective antimicrobial inhibition of a particular polypeptide or salt thereof range between 10-100 and follow routinely without elaborate laboratory determinations by those skilled in the art of pharmacokinetics and metabolic pathways using, for instance, various cytochrome and liver enzymes in vivo.

[2] = Biostability half-life, mammalian; assay type: in vitro ADME
Source text: as §1

[3] = Biostability half-life, yeast; assay type: in vitro ADME
Source text: as §1

[4] = Biostability half-life, E. coli; assay type: in vitro ADME
Source text: as §1

E. coli(25922) = experiment: Minimum inhibitory concentration, broth microdilution in Mueller-Hinton media; assay type: cell-based, Escherichia coli; settings: E. coli (ATCC 25922), Gram negative
Source text: (§2) Table III lists the minimum inhibitory concentration (ug/mL) for the various organisms assayed in Mueller-Hinton growth media. Details of the microbiological techniques employed are available to those skilled in the art, for instance from the American Type Tissue Culture Catalog (ATCC, Maryland) or DIFCO Manual, 10th Edition, 1984, pp. 78-80. For instance, a cultured solution of the bacterial strains Escherichia coli (American Tissue Culture Collection, Maryland) ATCC […] and Pseudomonas aeruginosa ATCC 27853 can be tested to model Gram-negative bacteria. Bacteria were grown overnight at 37 C. in Mueller-Hinton broth, reinoculated and incubated at 37 C. to reach the exponential phase of bacterial growth [i.e. a final bacterial suspension cantaining from 100,000 to 500,000 colony-forming units [(CFU)/ml]. In 96 well tissue culture plates, peptides dissolved in distilled water were added to the bacterial suspension at concentrations varying between 1000 to 2 ug/mL derived from serial dilutions, and then incubated overnight at 37 C.

Ps. Aruginosa(13883) = experiment: as above; assay type: cell-based, Pseudomonas aeruginosa; settings: Ps. Aruginosa (ATCC 13883), Gram negative
Source text: as §2

Staph aureus(25923) = experiment: as above; assay type: cell-based; settings: Staph aureus (ATCC 25923), Gram positive
Source text: as §2

Pichia = experiment: Minimum inhibitory concentration, broth microdilution; assay type: cell-based; settings: Yeast Pichia
Source text: as §2

Sac.cerv. = experiment: as above; assay type: cell-based; settings: Yeast Sac.cerv.
Source text: as §2

[5] = test system: representative bacteria, yeast and fungi; experiment: Antimicrobial action (general statement); assay type: cell-based
Source text: as §2, with “In 96 well tissue culture plates, peptides dissolved in distilled water were added to the bacterial suspension at concentrations varying between 1000 to 2 ug/mL derived from serial dilutions, and then incubated overnight at 37 C.” left out
Table III lists the approximate pharmacokinetics of synthetic peptides described in the present invention which solubilize readily, persist in conformationally active secondary structures in vivo, and induce lysis of representative bacteria, yeast and fungi. These determinations derive from optical density readings (O.D.) and rely on spectrophotometric absorbance from known initial concentrations as reference standards. […]

Row | Compound | Solubility [1] [ug/100 g] | Biostability Half-life Mammalian [2] [h] | Biostability Half-life Yeast [3] [h] | Biostability Half-life E. coli [4] [h] | Minimum Inhibitory Concentration (MIC) (E. coli(25922)) [µg/mL] | Minimum Inhibitory Concentration (MIC) (Ps. Aruginosa(13883)) [µg/mL] | Minimum Inhibitory Concentration (MIC) (Staph aureus(25923)) [µg/mL] | Minimum Inhibitory Concentration (MIC) (Pichia) [µg/mL] | Minimum Inhibitory Concentration (MIC) (Sac.cerv.) [µg/mL] | solubility relative to B.t. fragment SEQ. 2 ([1]; ratio SEQ. 1 / SEQ. 2) [times] | antimicrobial potency [5]
1 | CC[C@H](C)[C@H](NC(=O)[C@H](CC(C)C)NC(=O)[C@H](CC(N)=O)NC(=O)[C@H](CCCNC(=N)N)NC(=O)[C@H](CC(C)C)NC(=O)[C@H](CCC(=O)O)NC(=O)[C@H](CO)NC(=O)[C@H](CC(C)C)NC(=O)[C@@H](NC(=O)[C@H](CCCNC(=N)N)NC(=O)[C@H](CCCCN)NC(=O)CNC(=O)[C@@H](NC(=O)[C@H](CC(C)C)NC(=O)[C@H](CO)NC(=O)CNC(=O)[C@@H](N)C(C)C)C(C)C)[C@@H](C)CC)C(N)=O [SEQ. ID 2, VGSLVGKRILSELRNLI] (H-VGSLVGKRILSELRNLI-NH2) | 16.50 | 100.00 | 20.00 | 10.00 | – | – | – | – | – | – | –
2 | GIGTLLGKKKTKFLKNILKL [SEQ. ID 1, 20-residue antimicrobial peptide, modified from a Bacillus thuringiensis delta-endotoxin fragment] | 85.09 | 30.00 | 20.00 | 10.00 | 16.00 | 32.00 | 63.00 | 8.00 | 16.00 | 5 | sub-micromolar
